Several values for one entry are separate records, joined by “and”; a condition that tells them apart may be missing. Identical values can stand only once. Toxic doses and inconclusive results are not listed.
System: L1210 leukemia ip in BDF1 mice, survival T/C
Assay: NCI In Vivo Anticancer Drug Screen. Data for tumor model L1210 Leukemia (intraperitoneal) in B6D2F1 (BDF1) mice
Details: endpoint: mean survival time, higher = longer survival
Method in brief: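 Transplantable tumor model; survival measured in treated vs vehicle control mice. Value = treated/control.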

[1] = dose: 100.0 mg/kg/injection, schedule: Q01DX009 (ip), vehicle: saline with Tween-80
[2] = dose: 200.0 mg/kg/injection, schedule: Q01DX009 (ip), vehicle: saline with Tween-80
[3] = dose: 100.0 mg/kg/injection, schedule: Q01DX009 (ip), vehicle: Klucel (hydroxypropylcellulose) (HPC)
[4] = dose: 200.0 mg/kg/injection, schedule: Q01DX009 (ip), vehicle: Klucel (hydroxypropylcellulose) (HPC)
[5] = dose: 400.0 mg/kg/injection, schedule: Q01DX009 (ip), vehicle: Klucel (hydroxypropylcellulose) (HPC)
[6] = dose: 100.0 mg/kg/injection, schedule: Q04DX003 (ip), vehicle: Klucel (hydroxypropylcellulose) (HPC)
[7] = dose: 200.0 mg/kg/injection, schedule: Q04DX003 (ip), vehicle: Klucel (hydroxypropylcellulose) (HPC)
[8] = dose: 400.0 mg/kg/injection, schedule: Q04DX003 (ip), vehicle: Klucel (hydroxypropylcellulose) (HPC)
[9] = dose: 100.0 mg/kg/injection, schedule: Q01DX001 (ip), vehicle: Klucel (hydroxypropylcellulose) (HPC)
[10] = dose: 200.0 mg/kg/injection, schedule: Q01DX001 (ip), vehicle: Klucel (hydroxypropylcellulose) (HPC)
[11] = dose: 400.0 mg/kg/injection, schedule: Q01DX001 (ip), vehicle: Klucel (hydroxypropylcellulose) (HPC)
[12] = dose: 25.0 mg/kg/injection, schedule: Q01DX009 (ip), vehicle: Klucel (hydroxypropylcellulose) (HPC)
[13] = dose: 50.0 mg/kg/injection, schedule: Q01DX009 (ip), vehicle: Klucel (hydroxypropylcellulose) (HPC)

Structure (SMILES): N=C(N)Sc1n[nH]c(=O)[nH]c1=O
- T/C (dose: 75.0 mg/kg/injection, schedule: Q01DX001 (ip), vehicle: alcohol): 100 % of control
- T/C (dose: 150.0 mg/kg/injection, schedule: Q01DX001 (ip), vehicle: alcohol): 90 % of control

Structure (SMILES): O=C(O)C1=CCCc2ccc(Br)cc21
- T/C (dose: 50.0 mg/kg/injection, schedule: Q01DX009 (ip), vehicle: saline with Tween-80): 93 % of control
- T/C [1]: 95 % of control
- T/C [2]: 98 % of control

Structure (SMILES): COc1ccc(COC(=O)Nc2cccc(Cl)c2)cc1OC
- T/C [3]: 96 % of control
- T/C [4]: 102 % of control
- T/C [5]: 103 % of control

Structure (SMILES): CS(=O)(=O)OC1CCC(OS(C)(=O)=O)CC1 (centres undefined)
- T/C (dose: 100.0 mg/kg/injection, schedule: Q01DX001 (ip), vehicle: saline with Tween-80): 103 % of control
- T/C (dose: 200.0 mg/kg/injection, schedule: Q01DX001 (ip), vehicle: saline with Tween-80): 100 % of control
- T/C (dose: 400.0 mg/kg/injection, schedule: Q01DX001 (ip), vehicle: saline with Tween-80): 100 % of control

Structure (SMILES): O=C1C=C(Cl)C(=O)c2ccccc21
- T/C (dose: 9.38 mg/kg/injection, schedule: Q01DX001 (ip), vehicle: steriod suspending solution): 91 % of control

Structure (SMILES): CCOC(=O)[C@H]1CCC[C@@H](NC(=O)N(CCCl)N=O)C1
- T/C (dose: 5.0 mg/kg/injection, schedule: Q01DX001 (ip), vehicle: other): 108 % of control
- T/C (dose: 10.0 mg/kg/injection, schedule: Q01DX001 (ip), vehicle: other): 123 % of control
- T/C (dose: 20.0 mg/kg/injection, schedule: Q01DX001 (ip), vehicle: other): 194 % of control
- T/C (dose: 31.0 mg/kg/injection, schedule: Q01DX001 (ip), vehicle: other): 329 % of control
- T/C (dose: 40.0 mg/kg/injection, schedule: Q01DX001 (ip), vehicle: other): 305 % of control
- T/C (dose: 62.0 mg/kg/injection, schedule: Q01DX001 (ip), vehicle: other): 254 % of control

Structure (SMILES): c1cc(C2OCCO2)ccn1
- T/C (dose: 100.0 mg/kg/injection, schedule: Q01DX001 (ip), vehicle: saline): 101 % of control
- T/C (dose: 100.0 mg/kg/injection, schedule: Q04DX003 (ip), vehicle: saline): 107 % of control
- T/C (dose: 200.0 mg/kg/injection, schedule: Q01DX001 (ip), vehicle: saline): 100 % of control
- T/C (dose: 200.0 mg/kg/injection, schedule: Q04DX003 (ip), vehicle: saline): 100 % of control
- T/C (dose: 400.0 mg/kg/injection, schedule: Q01DX001 (ip), vehicle: saline): 100 % of control
- T/C (dose: 400.0 mg/kg/injection, schedule: Q04DX003 (ip), vehicle: saline): 97 % of control

Structure (SMILES): C[N+](C)(C)CCSc1ccc2c3c(cccc13)C(=O)c1ccccc1-2
- T/C (dose: 12.5 mg/kg/injection, schedule: Q04DX002 (ip), vehicle: saline): 107 % of control
- T/C (dose: 25.0 mg/kg/injection, schedule: Q04DX002 (ip), vehicle: saline): 104 % of control
- T/C (dose: 50.0 mg/kg/injection, schedule: Q04DX002 (ip), vehicle: saline): 86 % of control

Structure (SMILES): CCC[CH2][Pb]([CH2]CCC)([CH2]CCC)[N](C#N)C#N
- T/C (dose: 25.0 mg/kg/injection, schedule: Q04DX002 (sc), vehicle: olive oil, sesame oil, peanut oil): 101 % of control
- T/C (dose: 50.0 mg/kg/injection, schedule: Q04DX002 (sc), vehicle: olive oil, sesame oil, peanut oil): 101 % of control
- T/C (dose: 100.0 mg/kg/injection, schedule: Q04DX002 (sc), vehicle: olive oil, sesame oil, peanut oil): 96 % of control and 97 % of control

Structure (SMILES): CCOC(=O)c1cnc(C)nc1Nc1ccccc1
- T/C [6]: 97 % of control
- T/C [7]: 103 % of control
- T/C [8]: 108 % of control

Structure (SMILES): CN(C)CCCC1c2ccccc2Oc2ccc(C(F)(F)F)cc21 (centres undefined)
- T/C (dose: 0.78 mg/kg/injection, schedule: Q04DX003 (ip), vehicle: saline): 103 % of control
- T/C (dose: 1.56 mg/kg/injection, schedule: Q04DX003 (ip), vehicle: saline): 102 % of control
- T/C (dose: 3.12 mg/kg/injection, schedule: Q04DX003 (ip), vehicle: saline): 105 % of control
- T/C (dose: 6.25 mg/kg/injection, schedule: Q04DX003 (ip), vehicle: saline): 105 % of control
- T/C (dose: 12.5 mg/kg/injection, schedule: Q04DX003 (ip), vehicle: saline): 102 % of control
- T/C (dose: 25.0 mg/kg/injection, schedule: Q04DX003 (ip), vehicle: saline): 117 % of control
- T/C (dose: 50.0 mg/kg/injection, schedule: Q01DX009 (ip), vehicle: saline): 100 % of control

Structure (SMILES): CCCCCCCCCCCCOc1ccc(C2(c3ccc(CCCCCCCCCCCC)cc3)CCCCC2)cc1
- T/C [9]: 101 % of control
- T/C [10]: 101 % of control
- T/C [11]: 106 % of control

Structure (SMILES): O=C1CCOc2ccc3ccccc3c21
- T/C [9]: 101 % of control
- T/C [3]: 109 % of control
- T/C [10]: 98 % of control
- T/C [4]: 101 % of control
- T/C [11]: 90 % of control
- T/C [5]: 111 % of control

Structure (SMILES): O=C(NCc1ccc(Cl)cc1)NC1CCCCC1
- T/C (dose: 100.0 mg/kg/injection, schedule: Q04DX002 (ip), vehicle: Klucel (hydroxypropylcellulose) (HPC)): 100 % of control
- T/C (dose: 200.0 mg/kg/injection, schedule: Q04DX002 (ip), vehicle: Klucel (hydroxypropylcellulose) (HPC)): 100 % of control
- T/C (dose: 400.0 mg/kg/injection, schedule: Q04DX002 (ip), vehicle: Klucel (hydroxypropylcellulose) (HPC)): 106 % of control

Structure (SMILES): Cc1cccc(C)c1NC(=O)C(C)C
- T/C [1]: 94 % of control
- T/C (dose: 100.0 mg/kg/injection, schedule: Q04DX003 (ip), vehicle: saline with Tween-80): 98 % of control
- T/C [2]: 95 % of control
- T/C (dose: 200.0 mg/kg/injection, schedule: Q04DX003 (ip), vehicle: saline with Tween-80): 98 % of control
- T/C (dose: 400.0 mg/kg/injection, schedule: Q01DX009 (ip), vehicle: saline with Tween-80): 90 % of control
- T/C (dose: 400.0 mg/kg/injection, schedule: Q04DX003 (ip), vehicle: saline with Tween-80): 96 % of control

Structure (SMILES): CC1NC(=O)COC1c1ccccc1 (centres undefined)
- T/C [12]: 101 % of control
- T/C [13]: 95 % of control
- T/C [3]: 101 % of control
- T/C [4]: 96 % of control

Structure (SMILES): COC1=NS(=O)(=O)C=C(c2ccccc2)O1
- T/C (dose: 300.0 mg/kg/injection, schedule: Q04DX002 (ip), vehicle: Klucel (hydroxypropylcellulose) (HPC)): 100 % of control

Structure (SMILES): N#Cc1cccc(C[P+](c2ccccc2)(c2ccccc2)c2ccccc2)c1
- T/C (dose: 12.5 mg/kg/injection, schedule: Q01DX009 (ip), vehicle: Klucel (hydroxypropylcellulose) (HPC)): 100 % of control
- T/C (dose: 12.5 mg/kg/injection, schedule: Q04DX003 (ip), vehicle: Klucel (hydroxypropylcellulose) (HPC)): 111 % of control
- T/C [12]: 102 % of control
- T/C (dose: 25.0 mg/kg/injection, schedule: Q04DX003 (ip), vehicle: Klucel (hydroxypropylcellulose) (HPC)): 111 % of control
- T/C (dose: 50.0 mg/kg/injection, schedule: Q04DX003 (ip), vehicle: Klucel (hydroxypropylcellulose) (HPC)): 100 % of control

Structure (SMILES): Cc1ccc2c(Br)cc(Br)c(O)c2n1
- T/C [12]: 94 % of control
- T/C [13]: 96 % of control
- T/C [3]: 97 % of control and 89 % of control
- T/C [6]: 97 % of control
- T/C [7]: 112 % of control
- T/C [8]: 98 % of control
